From patent publication US20210255184A1, “Biosensor Device and Methods” (The New Zealand Institute for Plant and Food Research …, priority 2018, published 2021) come the findings set out here.

Molecules are shown by their SMILES. pEC50: −log10 of the molar value.

For the test, the target named is T1, Or22a/Orco (Drosophila melanogaster, UniProt P81909).
T1 construct: his-tag; made in house; host or cells: baculovirus-infected Sf9 cells
T1 sequence (P81909 1-397): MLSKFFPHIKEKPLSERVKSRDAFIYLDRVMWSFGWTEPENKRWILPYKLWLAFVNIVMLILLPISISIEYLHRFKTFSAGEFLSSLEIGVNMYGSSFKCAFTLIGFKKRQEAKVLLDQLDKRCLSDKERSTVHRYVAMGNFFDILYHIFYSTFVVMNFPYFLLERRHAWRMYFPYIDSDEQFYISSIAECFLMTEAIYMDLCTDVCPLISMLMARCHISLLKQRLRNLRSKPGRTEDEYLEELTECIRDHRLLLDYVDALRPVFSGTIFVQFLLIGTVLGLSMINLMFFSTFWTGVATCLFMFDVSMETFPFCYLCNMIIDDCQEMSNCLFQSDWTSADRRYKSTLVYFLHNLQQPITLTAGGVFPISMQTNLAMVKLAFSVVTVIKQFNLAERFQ
T1 sequence (Q9VNB5 1-486 partner): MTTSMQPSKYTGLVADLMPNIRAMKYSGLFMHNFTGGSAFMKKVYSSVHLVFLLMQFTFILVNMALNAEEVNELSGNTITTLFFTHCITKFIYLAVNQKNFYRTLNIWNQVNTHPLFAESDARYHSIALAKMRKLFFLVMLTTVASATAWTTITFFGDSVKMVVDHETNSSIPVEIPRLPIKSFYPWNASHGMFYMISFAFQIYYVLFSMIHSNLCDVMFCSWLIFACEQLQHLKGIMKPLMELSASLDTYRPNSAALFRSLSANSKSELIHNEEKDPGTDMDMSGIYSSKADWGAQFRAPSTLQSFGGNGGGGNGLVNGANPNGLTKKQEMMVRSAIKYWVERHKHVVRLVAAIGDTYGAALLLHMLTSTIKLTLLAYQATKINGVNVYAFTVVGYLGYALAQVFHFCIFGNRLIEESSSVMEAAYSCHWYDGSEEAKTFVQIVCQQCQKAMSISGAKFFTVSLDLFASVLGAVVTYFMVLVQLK
In words: GFET sensor, Or22a/Orco liposomes. It is filed as biochemical. The conditions noted are these: Table 4, GFET. From the text: The GFETs used in this study were fabricated from a predeposited graphene film on 300 nm SiO2 coated Si substrate from ACS Suppliers, USA. The FETs consist of a channel with dimensions of 100 μm width and […]. The key steps involved in fabricating the GFET on a Si/SiO2 substrate is schematically illustrated in FIG. 12. The source and drain electrodes were defined by photolithography and formed by successive deposition of Cr and Au. Both the drain and source electrodes were then encapsulated using AZ1518 photoresist and a channel with dimensions of 100 μm width and 10 μm length was left open to the environment for gating and functionalisation.
The OR liposomes were functionalised onto the graphene surface via a non-covalent route using PBASE as the molecular linker as shown in FIG. 13. The OR liposomes were diluted at 1:10 ratio with 1×PBS (pH7.4). The cleaned GFETs were immersed in 1 mM PBASE solution in methanol for 1 hour. […]
Electrical sensor measurements of OR liposome functionalised GFETs were carried out using top liquid gate morphology as shown in the schematic in FIG. 15 (a). […] The transfer characteristics of the different graphene FETs (FIG. 15 (b) to (g)) were measured at Vds=1 mV while the liquid gate voltage Vlg was swept from −0.5 V to 1 V with an interval of 20 mV. […]

Take `CCCCCC(=O)OC` [methyl hexanoate]: the “Detection Range” value was 10^−13-10^−8 M and the negative-log EC50 (pEC50) was 11.41.

As a reminder, the pEC50 is the negative decadic logarithm of the EC50, by convention in mol/L.
